Experimental data as given in ChEMBL document CHEMBL4052645, “Discovery of potent and efficacious pyrrolopyridazines as dual JAK1/3 inhibitors” (Bioorg Med Chem Lett, 2017).
pIC50: −log10 of the molar value.

Columns and labels:
[1] = molecular target: Non-receptor tyrosine-protein kinase TYK2 (Homo sapiens, UniProt P29597); assay: Inhibition of His-tagged TYK2 (unknown origin) after 3 hrs by Caliper assay
[2] = molecular target: Tyrosine-protein kinase JAK2 (Homo sapiens, UniProt O60674); assay: Inhibition of GST-tagged JAK2 (unknown origin) after 3 hrs by Caliper assay
Tyrosine-protein kinase JAK2, sequence (O60674 whole entry): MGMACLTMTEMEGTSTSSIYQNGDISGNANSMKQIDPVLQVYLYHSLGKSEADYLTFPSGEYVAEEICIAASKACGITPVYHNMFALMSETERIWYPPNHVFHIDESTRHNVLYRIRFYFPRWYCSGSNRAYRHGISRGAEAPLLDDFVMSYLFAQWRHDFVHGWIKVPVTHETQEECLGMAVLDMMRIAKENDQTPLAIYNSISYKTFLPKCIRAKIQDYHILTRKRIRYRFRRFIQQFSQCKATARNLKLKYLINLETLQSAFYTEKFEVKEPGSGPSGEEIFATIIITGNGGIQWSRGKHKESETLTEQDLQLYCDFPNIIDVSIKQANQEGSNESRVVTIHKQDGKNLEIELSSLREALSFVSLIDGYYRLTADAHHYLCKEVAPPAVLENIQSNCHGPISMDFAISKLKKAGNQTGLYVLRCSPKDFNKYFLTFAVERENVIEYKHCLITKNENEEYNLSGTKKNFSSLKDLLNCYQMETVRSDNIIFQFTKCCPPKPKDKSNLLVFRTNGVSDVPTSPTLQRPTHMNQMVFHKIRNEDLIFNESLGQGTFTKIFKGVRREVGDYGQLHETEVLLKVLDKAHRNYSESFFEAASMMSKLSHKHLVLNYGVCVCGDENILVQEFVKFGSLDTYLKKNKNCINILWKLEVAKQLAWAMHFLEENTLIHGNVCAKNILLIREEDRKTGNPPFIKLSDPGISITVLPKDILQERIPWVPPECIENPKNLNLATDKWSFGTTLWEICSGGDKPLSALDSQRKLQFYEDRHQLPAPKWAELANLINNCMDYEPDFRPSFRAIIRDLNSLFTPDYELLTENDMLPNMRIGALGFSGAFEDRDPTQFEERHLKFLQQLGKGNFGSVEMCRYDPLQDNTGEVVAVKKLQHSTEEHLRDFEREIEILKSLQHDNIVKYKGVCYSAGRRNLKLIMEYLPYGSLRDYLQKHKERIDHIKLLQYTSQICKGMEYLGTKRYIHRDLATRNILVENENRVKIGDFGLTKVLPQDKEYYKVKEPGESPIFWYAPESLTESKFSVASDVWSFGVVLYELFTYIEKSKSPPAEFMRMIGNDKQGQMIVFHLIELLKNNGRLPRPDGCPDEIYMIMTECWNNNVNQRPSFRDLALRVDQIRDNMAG

[3] = molecular target: Tyrosine-protein kinase JAK1 (Homo sapiens, UniProt P23458); assay: Inhibition of GST-tagged JAK1 (unknown origin) after 3 hrs by Caliper assay
Tyrosine-protein kinase JAK1, sequence (P23458 whole entry): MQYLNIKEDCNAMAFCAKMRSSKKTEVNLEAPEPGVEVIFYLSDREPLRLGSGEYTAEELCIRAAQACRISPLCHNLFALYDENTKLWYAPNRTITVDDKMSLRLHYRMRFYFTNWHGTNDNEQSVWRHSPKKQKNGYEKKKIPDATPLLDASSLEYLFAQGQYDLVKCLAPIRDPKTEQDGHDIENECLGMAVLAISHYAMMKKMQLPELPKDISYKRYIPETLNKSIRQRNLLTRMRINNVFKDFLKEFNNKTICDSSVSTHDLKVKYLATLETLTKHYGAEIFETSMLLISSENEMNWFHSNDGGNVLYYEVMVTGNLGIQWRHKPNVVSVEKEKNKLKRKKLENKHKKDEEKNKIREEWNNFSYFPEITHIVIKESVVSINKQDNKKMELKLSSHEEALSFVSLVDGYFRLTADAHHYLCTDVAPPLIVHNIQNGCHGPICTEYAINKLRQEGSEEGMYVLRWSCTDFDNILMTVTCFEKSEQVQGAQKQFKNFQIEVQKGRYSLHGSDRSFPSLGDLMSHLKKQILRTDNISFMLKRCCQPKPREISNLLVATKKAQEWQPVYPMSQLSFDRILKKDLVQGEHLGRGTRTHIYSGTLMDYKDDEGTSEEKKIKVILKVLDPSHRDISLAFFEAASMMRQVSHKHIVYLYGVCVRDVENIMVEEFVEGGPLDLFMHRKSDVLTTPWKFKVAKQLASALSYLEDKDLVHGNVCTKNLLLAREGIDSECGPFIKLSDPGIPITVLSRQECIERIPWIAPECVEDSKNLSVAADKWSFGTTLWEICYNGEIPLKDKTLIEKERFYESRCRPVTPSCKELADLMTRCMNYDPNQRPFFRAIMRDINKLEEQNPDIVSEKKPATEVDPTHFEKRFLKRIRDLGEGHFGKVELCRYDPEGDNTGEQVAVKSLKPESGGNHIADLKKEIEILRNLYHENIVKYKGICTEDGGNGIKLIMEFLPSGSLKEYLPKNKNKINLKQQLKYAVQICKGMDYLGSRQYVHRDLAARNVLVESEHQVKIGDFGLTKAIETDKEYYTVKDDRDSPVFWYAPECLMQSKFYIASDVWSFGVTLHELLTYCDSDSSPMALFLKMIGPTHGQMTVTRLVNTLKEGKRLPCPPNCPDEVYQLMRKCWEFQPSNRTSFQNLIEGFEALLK

[4] = molecular target: Voltage-gated inwardly rectifying potassium channel KCNH2 (Homo sapiens, UniProt Q12809); assay: Inhibition of human ERG by flux-based assay
Voltage-gated inwardly rectifying potassium channel KCNH2, sequence (Q12809 whole entry): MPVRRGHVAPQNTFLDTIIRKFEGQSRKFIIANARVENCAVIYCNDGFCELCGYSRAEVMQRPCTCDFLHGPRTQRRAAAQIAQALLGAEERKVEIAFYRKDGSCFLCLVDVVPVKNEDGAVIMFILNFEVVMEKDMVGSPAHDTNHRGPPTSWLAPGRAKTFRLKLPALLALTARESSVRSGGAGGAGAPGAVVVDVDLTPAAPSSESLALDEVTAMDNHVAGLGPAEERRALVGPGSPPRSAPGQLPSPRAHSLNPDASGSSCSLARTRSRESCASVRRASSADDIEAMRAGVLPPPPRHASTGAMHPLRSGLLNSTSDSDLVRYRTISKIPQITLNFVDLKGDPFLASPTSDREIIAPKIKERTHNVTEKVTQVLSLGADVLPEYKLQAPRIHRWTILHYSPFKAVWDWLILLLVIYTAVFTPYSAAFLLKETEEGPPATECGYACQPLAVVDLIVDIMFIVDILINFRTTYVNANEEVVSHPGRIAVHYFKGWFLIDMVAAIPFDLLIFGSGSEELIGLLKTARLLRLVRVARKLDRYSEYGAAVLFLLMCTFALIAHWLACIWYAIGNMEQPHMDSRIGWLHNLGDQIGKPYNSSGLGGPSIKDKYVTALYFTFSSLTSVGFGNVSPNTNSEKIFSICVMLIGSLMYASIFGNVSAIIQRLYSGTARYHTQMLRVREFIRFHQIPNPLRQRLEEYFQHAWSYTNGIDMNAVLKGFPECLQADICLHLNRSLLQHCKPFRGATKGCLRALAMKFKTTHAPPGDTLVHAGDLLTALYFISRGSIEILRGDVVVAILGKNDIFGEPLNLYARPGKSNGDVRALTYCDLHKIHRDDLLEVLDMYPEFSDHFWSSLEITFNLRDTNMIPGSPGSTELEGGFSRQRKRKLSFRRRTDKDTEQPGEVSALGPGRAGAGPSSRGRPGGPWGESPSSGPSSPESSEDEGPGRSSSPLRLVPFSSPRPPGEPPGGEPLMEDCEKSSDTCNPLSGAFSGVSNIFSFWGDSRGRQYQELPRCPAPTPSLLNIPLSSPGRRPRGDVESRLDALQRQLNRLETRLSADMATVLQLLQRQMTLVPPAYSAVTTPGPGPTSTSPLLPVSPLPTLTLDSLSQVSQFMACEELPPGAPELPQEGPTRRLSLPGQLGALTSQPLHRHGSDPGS

[5] = Selectivity ratio of IC50 for JAK2 dependent EPO-induced STAT5A phosphorylation in human TF1 cells to IC50 for JAK1/JAK3 dependent IL2-induced STAT3 phosphorylation in human PBMC derived T-cells
[6] = molecular target: T1, Tyrosine-protein kinase JAK3 (Homo sapiens, UniProt P52333); assay: Inhibition of JAK3 (unknown origin) using CSKtide as substrate after 30 mins in presence of [gamma33P]ATP by liquid scintillation counting method
T1 sequence (P52333 whole entry): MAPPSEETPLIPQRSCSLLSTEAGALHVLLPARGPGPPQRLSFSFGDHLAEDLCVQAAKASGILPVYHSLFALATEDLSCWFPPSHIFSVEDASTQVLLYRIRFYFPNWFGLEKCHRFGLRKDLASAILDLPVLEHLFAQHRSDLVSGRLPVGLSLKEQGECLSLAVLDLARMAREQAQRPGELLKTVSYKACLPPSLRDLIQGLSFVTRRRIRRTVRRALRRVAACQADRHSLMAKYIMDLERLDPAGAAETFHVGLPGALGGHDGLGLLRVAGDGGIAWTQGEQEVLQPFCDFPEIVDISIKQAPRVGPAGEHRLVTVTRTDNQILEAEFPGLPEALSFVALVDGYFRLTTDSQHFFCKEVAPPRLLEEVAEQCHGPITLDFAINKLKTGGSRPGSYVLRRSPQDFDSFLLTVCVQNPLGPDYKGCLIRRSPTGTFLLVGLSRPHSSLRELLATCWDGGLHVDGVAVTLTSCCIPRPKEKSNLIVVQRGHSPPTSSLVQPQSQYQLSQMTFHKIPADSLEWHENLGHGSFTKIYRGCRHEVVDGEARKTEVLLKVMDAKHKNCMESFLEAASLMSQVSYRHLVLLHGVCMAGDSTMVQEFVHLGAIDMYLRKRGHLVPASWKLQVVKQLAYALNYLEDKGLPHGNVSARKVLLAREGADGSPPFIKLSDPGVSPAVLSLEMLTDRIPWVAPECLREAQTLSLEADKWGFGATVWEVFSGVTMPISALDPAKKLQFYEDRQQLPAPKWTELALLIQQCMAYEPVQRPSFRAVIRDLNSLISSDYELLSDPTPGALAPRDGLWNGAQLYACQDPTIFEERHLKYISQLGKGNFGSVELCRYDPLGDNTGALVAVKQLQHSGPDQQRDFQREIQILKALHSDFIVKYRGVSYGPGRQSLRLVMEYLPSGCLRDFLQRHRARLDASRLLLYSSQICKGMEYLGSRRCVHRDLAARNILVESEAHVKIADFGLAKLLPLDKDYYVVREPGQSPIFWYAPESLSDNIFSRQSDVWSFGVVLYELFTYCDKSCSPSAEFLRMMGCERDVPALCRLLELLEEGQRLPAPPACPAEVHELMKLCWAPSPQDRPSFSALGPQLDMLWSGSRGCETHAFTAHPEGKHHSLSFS

JAK3/JAK1 = JAK3/JAK1 (Homo sapiens, UniProt P23458+P52333); assay: Inhibition of JAK1/JAK3 in human whole blood assessed as reduction in IL-2 induced IFN-gamma production after 18 hrs by ELISA; format: protein-complex assay
JAK3/JAK1, sequence (P23458 whole entry, one chain of several): as the sequence (P23458 whole entry) above

Non-receptor tyrosine-protein kinase TYK2, sequence (P29597 whole entry): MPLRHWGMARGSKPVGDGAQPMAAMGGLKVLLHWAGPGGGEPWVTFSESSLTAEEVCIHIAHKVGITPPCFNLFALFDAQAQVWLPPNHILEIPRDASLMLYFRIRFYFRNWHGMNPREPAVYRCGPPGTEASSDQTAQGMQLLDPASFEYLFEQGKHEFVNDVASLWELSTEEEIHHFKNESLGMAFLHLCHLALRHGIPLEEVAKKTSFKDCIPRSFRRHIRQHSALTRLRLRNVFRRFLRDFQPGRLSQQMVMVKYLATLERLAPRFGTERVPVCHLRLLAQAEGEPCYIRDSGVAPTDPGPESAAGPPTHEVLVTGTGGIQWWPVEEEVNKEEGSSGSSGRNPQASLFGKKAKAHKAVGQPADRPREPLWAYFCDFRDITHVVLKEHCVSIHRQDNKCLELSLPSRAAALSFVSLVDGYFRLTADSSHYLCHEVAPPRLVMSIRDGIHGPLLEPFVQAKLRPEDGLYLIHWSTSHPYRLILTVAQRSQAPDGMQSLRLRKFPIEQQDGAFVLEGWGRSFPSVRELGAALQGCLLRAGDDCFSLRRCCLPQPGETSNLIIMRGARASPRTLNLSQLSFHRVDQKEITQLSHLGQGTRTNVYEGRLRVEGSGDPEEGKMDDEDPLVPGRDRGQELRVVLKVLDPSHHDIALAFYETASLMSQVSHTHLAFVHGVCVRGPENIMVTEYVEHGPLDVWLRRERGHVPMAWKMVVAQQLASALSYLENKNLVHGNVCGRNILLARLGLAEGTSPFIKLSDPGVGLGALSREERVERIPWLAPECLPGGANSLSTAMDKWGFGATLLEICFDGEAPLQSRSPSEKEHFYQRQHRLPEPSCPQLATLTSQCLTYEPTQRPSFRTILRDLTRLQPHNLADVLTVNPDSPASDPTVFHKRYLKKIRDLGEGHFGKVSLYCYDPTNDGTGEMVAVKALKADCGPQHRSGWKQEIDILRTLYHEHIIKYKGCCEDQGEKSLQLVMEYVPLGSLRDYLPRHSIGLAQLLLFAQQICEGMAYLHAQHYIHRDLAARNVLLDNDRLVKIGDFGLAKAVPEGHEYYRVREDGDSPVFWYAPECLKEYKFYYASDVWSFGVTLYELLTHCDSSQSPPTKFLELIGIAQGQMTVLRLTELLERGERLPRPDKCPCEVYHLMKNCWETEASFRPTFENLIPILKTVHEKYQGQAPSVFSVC

Row | pIC50 [1] | pIC50 [2] | pIC50 [3] | pIC50 [6] | pIC50 (JAK3/JAK1) | SMILES | pIC50 [4] | Ratio IC50 [5]
1 | 7.68 | 7.70 | 9.30 | 8.89 | 6.17 | COc1ccccc1-c1cc2c(N[C@@H]3CC[C@](C)(N)C3(C)C)c(C(N)=O)cnn2c1 | 5.12 | 562
2 | 6.74 | 6.85 |  |  | 7.01 | Cc1ccncc1-c1cc2c(N[C@@H]3CC[C@](C)(N)C3(C)C)c(C(N)=O)cnn2c1 | 4.74 | 120
3 | 7.47 | 7.96 |  | 9.22 | 6.96 | CC1(C)[C@H](Nc2c(C(N)=O)cnn3cc(-c4cccnc4)cc23)CC[C@]1(C)N |  | 
4 | 7.66 | 7.66 | 8.92 | 8.80 | < 6.00 | CC1(C)[C@H](Nc2c(C(N)=O)cnn3cc(-c4cccc(F)c4)cc23)CC[C@]1(C)N | 5.12 | 
5 | 8.04 | 7.82 | 9.22 | 8.82 | 6.77 | COc1ccc(-c2cc3c(N[C@@H]4CC[C@](C)(N)C4(C)C)c(C(N)=O)cnn3c2)cc1 | 4.86 | 46
6 | 7.29 | 7.31 | 9.15 | 8.74 | 6.31 | Cc1ccccc1-c1cc2c(N[C@@H]3CC[C@](C)(N)C3(C)C)c(C(N)=O)cnn2c1 |  | 
7 | 7.44 | 7.44 | 8.64 | 8.55 | 6.46 | COc1cc(-c2cc3c(N[C@@H]4CC[C@](C)(N)C4(C)C)c(C(N)=O)cnn3c2)ccn1 |  | 86
8 | 7.33 | 7.57 | 9.10 | 8.89 | < 6.00 | CC1(C)[C@H](Nc2c(C(N)=O)cnn3cc(-c4ccccc4Cl)cc23)CC[C@]1(C)N |  | 
9 | 7.82 | 7.77 | 8.92 | 8.82 | 6.20 | CC1(C)[C@H](Nc2c(C(N)=O)cnn3cc(-c4ccccc4F)cc23)CC[C@]1(C)N |  | 
10 | 7.22 | 7.36 | 8.18 | 8.72 | 6.66 | CC1(C)[C@H](Nc2c(C(N)=O)cnn3cc(-c4cncc(F)c4)cc23)CC[C@]1(C)N |  | 
11 | 7.70 | 7.77 | 8.89 | 9.00 | 6.11 | CC1(C)[C@H](Nc2c(C(N)=O)cnn3cc(-c4cccc(Cl)c4)cc23)CC[C@]1(C)N |  | 
12 | 8.00 | 7.82 | 9.05 | 9.10 |  | CC1(C)[C@H](Nc2c(C(N)=O)cnn3cc(-c4ccc(Cl)cc4)cc23)CC[C@]1(C)N |  | 
13 | 7.23 | 7.42 | 8.48 | 8.80 | 6.57 | CC1(C)[C@H](Nc2c(C(N)=O)cnn3cc(-c4ccnc(F)c4)cc23)CC[C@]1(C)N |  | 
14 | 8.07 | 7.85 | 9.10 | 9.15 | < 5.70 | Cc1ccc(-c2cc3c(N[C@@H]4CC[C@](C)(N)C4(C)C)c(C(N)=O)cnn3c2)cc1 |  | 
15 | 7.33 | 7.54 | 8.18 | 9.00 | 6.37 | CC1(C)[C@H](Nc2c(C(N)=O)cnn3cc(-c4ccc(C#N)nc4)cc23)CC[C@]1(C)N |  | 
16 | 7.26 | 7.33 | 8.14 | 8.42 | < 6.00 | CC1(C)[C@H](Nc2c(C(N)=O)cnn3cc(-c4cccc(C#N)c4)cc23)CC[C@]1(C)N |  | 
17 | 8.07 | 8.14 | 9.05 | 9.00 | 7.18 | CC1(C)[C@H](Nc2c(C(N)=O)cnn3cc(-c4ccc(C#N)cc4)cc23)CC[C@]1(C)N |  | 
18 | 7.47 | 7.60 | 8.80 | 8.72 | 6.30 | CC1(C)[C@H](Nc2c(C(N)=O)cnn3cc(-c4ccccc4C#N)cc23)CC[C@]1(C)N |  | 240
